From publication PMC4679714, “Influence of a novel, versatile bifunctional chelator on theranostic properties of a minigastrin analogue” (EJNMMI Research, 2015)
Square brackets hold non-standard residues; d marks the D form. Peptide text beside a SMILES is read from it. * marks the point of attachment. X1 = O=C(O)CN1CCN(CC(=O)O)CC(CCCCCCCCCC(=O)*)(N(CC(=O)O)CC(=O)O)C1

Tests used:
[1] = set-up: method as in doi:10.1002/ejic.201201108; conditions: cited from earlier work
[2] = molecular target: T1, human CCK2 receptor (Homo sapiens, UniProt P32239); test: Receptor binding affinity (IC50), displacement of 177Lu-labelled CP04 from CCK2+ cell membranes; conditions: radioligand 177Lu-labelled CP04, 1 h at 37 °C
T1 construct: expressed in transfected cells; host or cells: A431-309CCK2R (A431 cells transfected with CCK2R); membranes released by hypoosmotic lysis
T1 sequence (P32239 1-447): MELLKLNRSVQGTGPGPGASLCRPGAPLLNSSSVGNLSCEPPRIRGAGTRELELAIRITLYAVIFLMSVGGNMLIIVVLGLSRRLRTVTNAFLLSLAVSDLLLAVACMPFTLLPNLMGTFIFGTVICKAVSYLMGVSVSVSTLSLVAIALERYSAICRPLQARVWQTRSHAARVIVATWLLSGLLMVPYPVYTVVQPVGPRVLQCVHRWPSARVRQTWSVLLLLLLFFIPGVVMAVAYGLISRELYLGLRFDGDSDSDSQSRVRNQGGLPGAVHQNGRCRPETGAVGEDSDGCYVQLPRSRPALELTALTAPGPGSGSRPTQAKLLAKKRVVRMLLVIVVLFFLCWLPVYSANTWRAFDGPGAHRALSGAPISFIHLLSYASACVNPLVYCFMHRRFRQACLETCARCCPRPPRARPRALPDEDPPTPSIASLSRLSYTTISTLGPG
Experimental: A human transfected cell line was used with two different expression properties of the cholecystokinin (CCK) receptor: CCK2+ (A431-309CCK2R; receptor-positive cells) and CCK2− (A431-609; mock transfected control cells) cells.
In vitro binding affinities of AAZTA-MG were determined by using CCK2+ cell membranes and ^177Lu-labelled CP04 (a minigastrin analogue with high affinity to the CCK2 receptor) as radioligand incubated with increasing concentrations of the competitor. As competitor AAZTA-MG and [^natLu]- and [^natGa]-AAZTA-MG were used. The latter were prepared by incubating 10 μg AAZTA-MG with a tenfold molar excess of Lu-chloride in ascorbic acid buffer and 100 μl Ga-bromide in sodium acetate buffer for 10 min, respectively.
The 96-well plates (MulitScreen Filter Plates, HTS) were washed with 250 μL 10 mM TRIS buffered saline (pH 7.3). CCK2 cells were diluted in 20 mM HEPES buffer containing […] MgCl2—in this hypoosmotic solution the cells were cracked releasing free membranes.

Structure (SMILES) | Stability constant (logK) for Ga^3+ [1] | Stability constant (logK) for In^3+ [1] | also measured
CC1(N(CC(=O)O)CC(=O)O)CN(CC(=O)O)CCN(CC(=O)O)C1 [AAZTA, 6-[Bis(carboxymethyl)amino]-1,4-bis(carboxymethyl)-6-methyl-1,4-diazepane] | 22.18 | 29.58 | 
O=C(O)CN1CCN(CC(=O)O)CCN(CC(=O)O)CCN(CC(=O)O)CC1 [^68Ga-DOTA, 1,4,7,10-tetraazacyclododecane-1,4,7,10-tetraacetic acid, metal not drawn] | 21.3 | 23.9 | 
CSCC[C@H](NC(=O)[C@H](Cc1c[nH]c2ccccc12)NC(=O)CNC(=O)[C@H](Cc1ccc(O)cc1)NC(=O)[C@H](C)NC(=O)[C@@H](CCC(=O)O)NC(=O)CCCCCCCCCC1(N(CC(=O)O)CC(=O)O)CN(CC(=O)O)CCN(CC(=O)O)C1)C(=O)N[C@@H](CC(=O)O)C(=O)N[C@@H](Cc1ccccc1)C(N)=O [[^natGa]AAZTA-MG, metal not drawn] (X1-[dE]AYGWMDF-NH2) |  |  | IC50 ([2]; listed as [^natGa]-AAZTA-MG): 8.18 ± 3.16 nM
CSCC[C@H](NC(=O)[C@H](Cc1c[nH]c2ccccc12)NC(=O)CNC(=O)[C@H](Cc1ccc(O)cc1)NC(=O)[C@H](C)NC(=O)[C@@H](CCC(=O)O)NC(=O)CCCCCCCCCC1(N(CC(=O)O)CC(=O)O)CN(CC(=O)O)CCN(CC(=O)O)C1)C(=O)N[C@@H](CC(=O)O)C(=O)N[C@@H](Cc1ccccc1)C(N)=O [[^natLu]AAZTA-MG, metal not drawn] (X1-[dE]AYGWMDF-NH2) |  |  | IC50 ([2]; listed as [^natLu]): 9.44 ± 4.57 nM
CSCC[C@H](NC(=O)[C@H](Cc1c[nH]c2ccccc12)NC(=O)CNC(=O)[C@H](Cc1ccc(O)cc1)NC(=O)[C@H](C)NC(=O)[C@@H](CCC(=O)O)NC(=O)CCCCCCCCCC1(N(CC(=O)O)CC(=O)O)CN(CC(=O)O)CCN(CC(=O)O)C1)C(=O)N[C@@H](CC(=O)O)C(=O)N[C@@H](Cc1ccccc1)C(N)=O [AAZTA-MG, [AAZTA^0, D-Glu^1, desGlu^2–6]-minigastrin] (X1-[dE]AYGWMDF-NH2) |  |  | IC50 [2]: 10 nM
